Measurements reported in publication PMC6287599, “2,6-Bis(2-Benzimidazolyl)Pyridine (BBP) Is a Potent and Selective Inhibitor of Small Conductance Calcium-Activated Potassium (SK) Channels” (Frontiers in Pharmacology, 2018).

Tests used:
hSK3 = hSK3 (Homo sapiens, UniProt Q9UGI6); assay: Automated patch clamp (QPatch 16), whole cell, stable HEK293 cell line expressing hSK3; format: cell-based; settings: HEK stable line, 400 nM free intracellular calcium, mean ± SEM, n = 9
Procedure: Three different stable HEK293 cell lines expressing hSK1, hSK2 or hSK3 (NeuroSearch A/S, Ballerup, Denmark) and a CHO stable cell line expressing hERG (University of Copenhagen, Copenhagen, Denmark) were used for automated patch clamp. These cells were cultivated and prepared as previously described (Skarsfeldt et al., [2016]).
Automated patch clamp (QPatch 16, Sophion, Denmark) on SK-expressing HEK293 cell lines was conducted as previously described (Simó-Vicens et al., [2017b]). Briefly, SK currents were elicited by voltage-ramps starting at −80 mV and finishing at +80 mV from a holding potential of 0 mV. Extracellular solution contained 0.1 mM CaCl2, 3 mM MgCl2, 154 mM KCl, 10 mM HEPES and 10 mM glucose with pH 7.4. Intracellular solution for SK experiments contained 8.106 mM CaCl2 (final free calcium concentration of 400 nM), 1.167 mM MgCl2, 10 mM EGTA, 154 mM KCl, 10 mM HEPES, 31.25/ 10 mM KOH/EGTA and 15 mM KOH with pH 7.2. Automated patch clamp on hERG-expressing CHO cell line was performed also as previously described (Skarsfeldt et al., [2016]).
Individual IC50 values were calculated for each cell with the built-in nonlinear fit log(inhibitor) vs. normalized response equation:
Where Y is the normalized response, from 100, corresponding to current recorded during saline perfusion, down to 0, corresponding to currents recorded in the presence of bicuculline methiodide 100 μM. […]

hSK1 = hSK1 (Homo sapiens, UniProt Q92952); assay: Manual whole cell patch clamp, HEK293 transiently transfected with hSK1; format: cell-based; settings: BBP 1 μM, compared to positive control bicuculline methiodide 100 μM, n = 6, read-out: Inhibition of hSK1 current
Procedure: HEK293 cells were transiently co-transfected with the plasmid of interest (hBK, hSK1, hSK2, hSK3 WT, rSK3 H491N, or hIK) and eGFP using standard Lipofectamine™ 2000 (Thermo Fisher Scientific, Waltham, Massachussets, USA) transfection protocols. After transfection, cells were incubated overnight before the experiments.
Manual patch clamp experiments were performed at room temperature in the whole cell configuration with a HEKA EPC9 amplifier and the Patchmaster software (HEKA Elektronik, Ludwigshafen, Germany). All currents were elicited every 2 s using an incremental 200 ms voltage-ramp protocol starting at −80 mV and finishing at +80 mV from a holding potential of 0 mV. […] Currents were measured using the same solutions as the ones used for automated patch clamp, with symmetrical potassium concentrations and a free intracellular calcium concentration of 400 nM. […]
To assess the effect of BBP on other calcium-activated potassium channels (hBK, hSK3 WT, rSK3 H491N, and hIK), each individual current was first normalized to its cell size using membrane's capacitance (pA/pF) before statistical analysis. […] Statistical significance between saline and the effect of both BBP and the corresponding reference compound was determined for each channel using one-way ANOVA analysis. […]

IC50 (hSK3): 400 ± 200 nM | inhibition at 1 µM (hSK1): 93.7 ± 1.6%
Compound: c1cc(-c2nc3ccccc3[nH]2)nc(-c2nc3ccccc3[nH]2)c1 [BBP, 2,6-Bis(2-benzimidazolyl)pyridine]
